Patent publication US12398154B2, “Azaquinazoline pan-KRas inhibitors” (Mirati Therapeutics, Inc., priority 2020, dated 2025)

Experiments:
KRas G12V = KRas G12V (Homo sapiens, UniProt P01116, G12V); experiment: biochemical;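 also: KRas binding measured by TR-FRET displacement at room temperature, IC50 fitted from percent of control values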
Protocol: (§2) The ability of a compound to bind to KRas was measured using a TR-FRET displacement assay. […] After a 60-minute incubation at room temperature, the reaction was measured using a BMG LABTECH CLARIO star Plus via TR-FRET. […] The POC values were fit to a 4-parameter IC50 equation and the IC50 value reported.

[1] = system: phospho-ERK in MKN1 (WTdep) cells; experiment: Inhibition of KRas-mediated phosphorylation of ERK (in-cell western); assay type: cell-based; settings: Homo sapiens, MKN-1, 3 hours compound, phospho-ERK normalized to GAPDH
In short: (§1)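 Cells were treated with compound for 3 hours (0.5% DMSO final), then fixed with formaldehyde and permeabilized with ice-cold methanol. Phospho-ERK (Thr202/Tyr204) was detected by antibody and normalized to GAPDH per well, expressed as percent of DMSO control, and IC50 obtained by 4-parameter fit.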

[2] = system: phospho-ERK in NCI-H358 (G12C) cells; experiment: as above; assay type: cell-based; settings: Homo sapiens, 3 hours compound, phospho-ERK normalized to GAPDH
In short: as §1

[3] = system: phospho-ERK in NCI-H727 (G12V) cells; experiment: as above; assay type: cell-based; settings: Homo sapiens, NCI-H727, 3 h, 3 hours compound, phospho-ERK normalized to GAPDH
In short: as §1

[4] = system: phospho-ERK in A549 (G12S) cells; experiment: as above; assay type: cell-based; settings: Homo sapiens, 3 hours compound, phospho-ERK normalized to GAPDH
In short: as §1

[5] = system: phospho-ERK in AsPC-1 (G12D) cells; experiment: as above; assay type: cell-based; settings: Homo sapiens, ASPC1, 3 h, 3 hours compound, phospho-ERK normalized to GAPDH
In short: as §1

[6] = system: phospho-ERK in PSN-1 (G12R) cells; experiment: as above; assay type: cell-based; settings: Homo sapiens, PSN1, 3 hours compound, phospho-ERK normalized to GAPDH
In short: as §1

[7] = system: phospho-ERK in HCT116 (G13D) cells; experiment: as above; assay type: cell-based; settings: Homo sapiens, HCT-116, 3 hours compound, phospho-ERK normalized to GAPDH
In short: as §1

[8] = system: phospho-ERK in NCI-H460 (Q61H) cells; experiment: as above; assay type: cell-based; settings: Homo sapiens, NCI-H460, 3 h, 3 hours compound, phospho-ERK normalized to GAPDH
In short: as §1

KRas G12R = KRas G12R (Homo sapiens, UniProt P01116, G12R); experiment: biochemical;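 also: TR-FRET displacement assay of compound binding to KRas, read after one hour at room temperature, potency from a four-parameter fit of percent-of-control values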
Protocol: as §2

KRas G12D = KRas G12D (Homo sapiens, UniProt P01116, G12D); experiment: biochemical;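 also: TR-FRET displacement binding assay on KRas, read after a one-hour incubation at room temperature, IC50 fitted from percent-of-control values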
Protocol: as §2

KRas G12S = KRas G12S (Homo sapiens, UniProt P01116, G12S); experiment: biochemical;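 also: TR-FRET displacement binding to KRas, read after one hour incubation at room temperature, IC50 from four-parameter fit of percent of control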
Protocol: as §2

KRas Q61H = biological target: T1, KRas Q61H (Homo sapiens, UniProt P01116, Q61H); experiment: KRas binding assay (TR-FRET displacement);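 also: TR-FRET signal read after one hour at room temperature, IC50 derived by four-parameter fitting of percent-of-control values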
T1 construct: Biotinylated KRas (corresponding to amino acids 1-169, produced at Accelegan Inc.); biotin (biotinylated); purchased Accelegan Inc
Protocol: as §2

KRas G12C = KRas G12C (Homo sapiens, UniProt P01116, G12C); experiment: biochemical;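 also: binding to KRas assessed by TR-FRET displacement after one hour incubation at room temperature, potency fitted from percent-of-control values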
Protocol: as §2

KRas G13D = biological target: T2, KRas G13D (Homo sapiens, UniProt P01116, G13D); experiment: KRas binding assay (TR-FRET displacement);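 also: One-hour room temperature incubation before TR-FRET reading, IC50 from a four-parameter curve fit to percent-of-control data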
T2 construct: Biotinylated KRas (corresponding to amino acids 1-169, produced at Accelegan Inc.); biotin (biotinylated); purchased Accelegan Inc
Protocol: as §2

KRas WT = KRas WT (Homo sapiens, UniProt P01116); experiment: biochemical;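 also: binding to KRas read as TR-FRET displacement after a one-hour room-temperature incubation, IC50 derived from percent-of-control values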
Protocol: as §2

KRas G12A = KRas G12A (Homo sapiens, UniProt P01116, G12A); experiment: biochemical;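 also: binding to KRas measured by TR-FRET displacement after one hour at room temperature, IC50 from a four-parameter fit of percent-of-control values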
Sequence of KRas G12A (P01116 1-169 isoform P01116-2 G12A): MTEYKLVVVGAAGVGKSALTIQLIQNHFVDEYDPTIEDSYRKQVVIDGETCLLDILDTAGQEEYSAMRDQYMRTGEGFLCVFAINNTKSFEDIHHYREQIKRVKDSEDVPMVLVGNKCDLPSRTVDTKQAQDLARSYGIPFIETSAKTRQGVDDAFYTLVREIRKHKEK
Protocol: as §2

Sequence of KRas G12D (P01116 1-169 isoform P01116-2 G12D): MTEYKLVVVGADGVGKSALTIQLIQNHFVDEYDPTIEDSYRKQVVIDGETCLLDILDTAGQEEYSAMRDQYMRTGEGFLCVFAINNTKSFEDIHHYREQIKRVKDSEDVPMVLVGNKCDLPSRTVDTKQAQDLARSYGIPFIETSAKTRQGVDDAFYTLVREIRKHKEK
Sequence of KRas G12V (P01116 1-169 isoform P01116-2 G12V): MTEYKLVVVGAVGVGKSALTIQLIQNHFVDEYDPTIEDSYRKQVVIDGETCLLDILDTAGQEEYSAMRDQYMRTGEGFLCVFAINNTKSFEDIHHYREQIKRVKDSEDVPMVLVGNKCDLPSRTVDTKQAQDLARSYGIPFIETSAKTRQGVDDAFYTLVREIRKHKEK
Sequence of KRas G12R (P01116 1-169 isoform P01116-2 G12R): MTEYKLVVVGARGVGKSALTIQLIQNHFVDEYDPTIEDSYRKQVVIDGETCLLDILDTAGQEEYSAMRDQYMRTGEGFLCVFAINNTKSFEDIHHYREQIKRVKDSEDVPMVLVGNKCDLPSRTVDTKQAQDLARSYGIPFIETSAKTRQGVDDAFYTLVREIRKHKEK
Sequence of KRas WT (P01116 1-169 isoform P01116-2): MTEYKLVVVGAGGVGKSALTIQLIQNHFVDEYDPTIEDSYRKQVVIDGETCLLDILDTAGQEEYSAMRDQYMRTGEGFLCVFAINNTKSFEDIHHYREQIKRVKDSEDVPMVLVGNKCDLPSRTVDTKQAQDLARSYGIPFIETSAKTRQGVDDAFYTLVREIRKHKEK
T1 sequence (P01116 1-169 isoform P01116-2 Q61H): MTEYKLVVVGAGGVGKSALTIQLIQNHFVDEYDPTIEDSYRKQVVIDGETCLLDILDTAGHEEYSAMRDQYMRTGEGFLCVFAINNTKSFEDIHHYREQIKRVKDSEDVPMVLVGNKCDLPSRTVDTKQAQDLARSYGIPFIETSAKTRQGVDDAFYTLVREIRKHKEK
T2 sequence (P01116 1-169 isoform P01116-2 G13D): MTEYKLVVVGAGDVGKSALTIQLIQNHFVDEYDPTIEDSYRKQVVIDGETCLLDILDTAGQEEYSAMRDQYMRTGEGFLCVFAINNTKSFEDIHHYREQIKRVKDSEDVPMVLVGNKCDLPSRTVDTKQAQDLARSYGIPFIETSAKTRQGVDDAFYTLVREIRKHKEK
Sequence of KRas G12S (P01116 1-169 isoform P01116-2 G12S): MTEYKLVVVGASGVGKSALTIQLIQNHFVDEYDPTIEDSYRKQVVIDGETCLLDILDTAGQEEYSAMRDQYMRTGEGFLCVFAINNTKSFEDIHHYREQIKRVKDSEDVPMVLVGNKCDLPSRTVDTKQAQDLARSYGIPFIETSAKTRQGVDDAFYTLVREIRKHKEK
Sequence of KRas G12C (P01116 1-169 isoform P01116-2 G12C): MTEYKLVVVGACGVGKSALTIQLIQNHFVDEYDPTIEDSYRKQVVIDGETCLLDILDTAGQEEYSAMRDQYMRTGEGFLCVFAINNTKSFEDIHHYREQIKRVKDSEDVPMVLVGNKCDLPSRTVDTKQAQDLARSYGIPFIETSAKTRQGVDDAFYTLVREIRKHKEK

Structure (SMILES)	IC50 (KRas G12V)	IC50 [1]	IC50 [2]	IC50 [3]	IC50 [4]	IC50 [5]	IC50 [6]	IC50 [7]	IC50 [8]	IC50 (KRas G12R)	IC50 (KRas G12D)	IC50 (KRas G12S)	IC50 (KRas Q61H)	IC50 (KRas G12C)	IC50 (KRas G13D)	IC50 (KRas WT)	IC50 (KRas G12A)
CCc1c(F)ccc2cc(O)cc(-c3ncc4c(N5CCCC6(CNC(=O)C6)C5)nc(OC[C@@]56CCCN5C[C@H](F)C6)nc4c3F)c12 (stereo partly shown) [Example 38]	≤ 2 nM	143 nM	324 nM	1190 nM	3270 nM	966 nM	7620 nM	814 nM	573 nM	≤ 2 nM	≤ 2 nM						
CCc1c(F)ccc2cc(O)cc(-c3ncc4c(NCc5cc[nH]n5)nc(OC[C@@]56CCCN5C[C@H](F)C6)nc4c3F)c12 [Example 159, 4-(4-(((1H-pyrazol-3-yl)methyl)amino)-8-fluoro-2-(((2R,7aS)-2-fluorohexahydro-1H-pyrrolizin-7a-yl)methoxy)pyrido[4,3-d]pyrimidin-7-yl)-5-ethyl-6-fluoronaphthalen-2-ol]	3 nM	133 nM	139 nM	2000 nM	4070 nM	≥ 10000 nM	≥ 10000 nM	2110 nM	1510 nM	5 nM	39 nM						
CCc1c(F)ccc2cc(O)cc(-c3ncc4c(NCCCc5cc[nH]n5)nc(OC[C@@]56CCCN5C[C@H](F)C6)nc4c3F)c12 [Example 135, 4-(4-((3-(1H-pyrazol-3-yl)propyl)amino)-8-fluoro-2-(((2R,7aS)-2-fluorohexahydro-1H-pyrrolizin-7a-yl)methoxy)pyrido[4,3-d]pyrimidin-7-yl)-5-ethyl-6-fluoronaphthalen-2-ol]	3 nM	53 nM	37 nM	≥ 10000 nM	2460 nM	2060 nM	≥ 10000 nM	3270 nM	647 nM	3 nM	31 nM						
CCc1c(F)ccc2cc(O)cc(-c3ncc4c(OCCCc5cccnc5)nc(OC[C@@]56CCCN5C[C@H](F)C6)nc4c3F)c12 [Example 298, 5-ethyl-6-fluoro-4-(8-fluoro-2-(((2R,7aS)-2-fluorohexahydro-1H-pyrrolizin-7a-yl)methoxy)-4-(3-(pyridin-3-yl)propoxy)pyrido[4,3-d]pyrimidin-7-yl)naphthalen-2-ol]	133 nM	2710 nM	5010 nM	≥ 10000 nM	≥ 10000 nM	≥ 10000 nM	≥ 10000 nM	≥ 10000 nM	≥ 10000 nM	99 nM	1520 nM						
CCc1c(F)ccc2cc(O)cc(-c3ncc4c(NCCCc5ccncc5)nc(OC[C@@]56CCCN5C[C@H](F)C6)nc4c3F)c12 [Example 176, 5-ethyl-6-fluoro-4-(8-fluoro-2-(((2R,7aS)-2-fluorohexahydro-1H-pyrrolizin-7a-yl)methoxy)-4-((3-(pyridin-4-yl)propyl)amino)pyrido[4,3-d]pyrimidin-7-yl)naphthalen-2-ol]	20 nM	701 nM	1250 nM	3950 nM	≥ 10000 nM	≥ 10000 nM	≥ 10000 nM	≥ 10000 nM	3510 nM	30 nM	108 nM						
CCc1c(F)ccc2cc(O)cc(-c3ncc4c(NCc5c[nH]c6ncccc56)nc(OC[C@@]56CCCN5C[C@H](F)C6)nc4c3F)c12 [62.]		7 nM	24 nM	178 nM	87 nM	591 nM	≥ 10000 nM	410 nM	154 nM								
CCc1c(F)ccc2cc(O)cc(-c3ncc4c(NCc5c[nH]cn5)nc(OC[C@@]56CCCN5C[C@H](F)C6)nc4c3F)c12 [Example 164, 4-(4-(((1H-imidazol-4-yl)methyl)amino)-8-fluoro-2-(((2R,7aS)-2-fluorohexahydro-1H-pyrrolizin-7a-yl)methoxy)pyrido[4,3-d]pyrimidin-7-yl)-5-ethyl-6-fluoronaphthalen-2-ol]	3 nM	207 nM	602 nM	≥ 10000 nM	≥ 10000 nM	≥ 10000 nM	≥ 10000 nM	≥ 10000 nM	6820 nM	3 nM	28 nM						
CCc1c(F)ccc2cc(O)cc(-c3ncc4c(Nc5ccc6cn[nH]c6c5)nc(OC[C@@]56CCCN5C[C@H](F)C6)nc4c3F)c12 [Example 171, 4-(4-((1H-indazol-6-yl)amino)-8-fluoro-2-(((2R,7aS)-2-fluorohexahydro-1H-pyrrolizin-7a-yl)methoxy)pyrido[4,3-d]pyrimidin-7-yl)-5-ethyl-6-fluoronaphthalen-2-ol]	3 nM		≥ 10000 nM	≥ 10000 nM	≥ 10000 nM		≥ 10000 nM	≥ 10000 nM		9 nM	89 nM						
CCc1c(F)ccc2cc(O)cc(-c3ncc4c(N5CCC6(CC5)CC(=O)N6)nc(OC[C@@]56CCCN5C[C@H](F)C6)nc4c3F)c12 [Example 73]	≤ 2 nM	23 nM	98 nM	756 nM	191 nM	3490 nM	≥ 10000 nM	128 nM	176 nM	≤ 2 nM	5 nM						
CCc1c(F)ccc2cc(O)cc(-c3ncc4c(Nc5ccc6cnn(C)c6c5)nc(OC[C@@]56CCCN5C[C@H](F)C6)nc4c3F)c12 [Example 174, 5-ethyl-6-fluoro-4-(8-fluoro-2-(((2R,7aS)-2-fluorohexahydro-1H-pyrrolizin-7a-yl)methoxy)-4-((1-methyl-1H-indazol-6-yl)amino)pyrido[4,3-d]pyrimidin-7-yl)naphthalen-2-ol]	4 nM		1290 nM	≥ 10000 nM	4950 nM		≥ 10000 nM	≥ 10000 nM		13 nM	89 nM						
CCc1c(F)ccc2cc(O)cc(-c3ncc4c(N5CCCC(CS(N)(=O)=O)C5)nc(OC[C@@]56CCCN5C[C@H](F)C6)nc4c3F)c12 (stereo partly shown) [Example 170]	≤ 2 nM		470 nM	3400 nM	≥ 10000 nM		≥ 10000 nM	2350 nM		≤ 2 nM	≤ 2 nM						
CCc1c(F)ccc2cc(O)cc(-c3ncc4c(N5CC(n6ccnc6)C5)nc(OC[C@@]56CCCN5C[C@H](F)C6)nc4c3F)c12 [Example 134, 4-(4-(3-(1H-imidazol-1-yl)azetidin-1-yl)-8-fluoro-2-(((2R,7aS)-2-fluorohexahydro-1H-pyrrolizin-7a-yl)methoxy)pyrido[4,3-d]pyrimidin-7-yl)-5-ethyl-6-fluoronaphthalen-2-ol]		178 nM	48 nM	≥ 10000 nM	1490 nM	≥ 10000 nM	≥ 10000 nM	≥ 10000 nM	666 nM								
C[C@@]1(O)CCCN(c2nc(OC[C@@]34CCCN3C[C@H](F)C4)nc3c(F)c(-c4c5ccccc5cc5[nH]ncc45)ncc23)C1 [Example 154, (3R)-1-(7-(1H-benzo[f]indazol-4-yl)-8-fluoro-2-(((2R,7aS)-2-fluorohexahydro-1H-pyrrolizin-7a-yl)methoxy)pyrido[4,3-d]pyrimidin-4-yl)-3-methylpiperidin-3-ol]	28 nM		840 nM	≥ 10000 nM	8450 nM		≥ 10000 nM	1460 nM		66 nM	33 nM	43 nM	53 nM	43 nM	34 nM	54 nM	42 nM
CCc1c(F)ccc2cc(O)cc(-c3ncc4c(NC56CC(O)(C5)C6)nc(OC[C@@]56CCCN5C[C@H](F)C6)nc4c3F)c12 [Example 166]	≤ 2 nM		328 nM	≥ 10000 nM	≥ 10000 nM		≥ 10000 nM	≥ 10000 nM		≤ 2 nM	7 nM						
